Laboratory results: patent publication US20250195530A1, “POLQ INHIBITORS” (ASTRAZENECA AB, priority 2022, published 2025)

Tested on: DLD-1 BRCA2−/− cells
Assay: Homologous recombination synthetic lethal inhibition of proliferation, DLD-1 BRCA2-/- (Cell Titre Glo 3D)
Format: cell-based
Settings: Homo sapiens, DLD-1, first proliferation column (c5); DLD-1 BRCA2-/-; read-out: POLQ PD Prolif Lumin (converted)
Outline: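 Luminescent Cell Titre Glo 3D readout, taken on day 12 for homologous-recombination-deficient DLD-1 BRCA2−/− and day 7 for the wild-type control, after compound refresh on day 6. Compounds spanned 10 μM to 0.51 nM in three-fold steps; IC50 defined as 50% reduction of average maximum signal.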

| Compound | IC50 [nM] |
| --- | --- |
| CNC(=O)COc1ccc(-c2nc3c(OC4(C)CC4)ncnc3n2Cc2cc(C)ccn2)c(Cl)c1 [Example T118, 2-(3-chloro-4-(6-(1-methylcyclopropoxy)-9-((4-methylpyridin-2-yl)methyl)-9H-purin-8-yl)phenoxy)-N-methylacetamide] | 251 |
| CNC(=O)COc1ccc(Cl)c(-c2nc3c(OC4(C)CC4)ncnc3n2Cc2cc(C)ccn2)c1 [Example T122, 2-(4-chloro-3-(6-(1-methylcyclopropoxy)-9-((4-methylpyridin-2-yl)methyl)-9H-purin-8-yl)phenoxy)-N-methylacetamide] | 6310 |
| Cc1ccnc(Cn2c(-c3ccc(OCCCO)cc3Cl)nc3c(OC4(C)CC4)ncnc32)c1 [Example T124, 3-(3-chloro-4-(6-(1-methylcyclopropoxy)-9-((4-methylpyridin-2-yl)methyl)-9H-purin-8-yl)phenoxy)propan-1-ol] | 79.4 |
| COCCOc1ccc(-c2nc3c(OC4(C)CC4)ncnc3n2Cc2cc(C)ccn2)c(Cl)c1 [Example T125, 8-(2-chloro-4-(2-methoxyethoxy)phenyl)-6-(1-methylcyclopropoxy)-9-((4-methylpyridin-2-yl)methyl)-9H-purine] | 100 |
| Cc1ccnc(Cn2c(-c3ccc(NC(=O)N(C)C)cc3Cl)nc3c(OC4(C)CC4)ncnc32)c1 [Example T130, 3-(3-chloro-4-(6-(1-methylcyclopropoxy)-9-((4-methylpyridin-2-yl)methyl)-9H-purin-8-yl)phenyl)-1,1-dimethylurea] | 501 |
| CNC(=O)CNc1ccc(-c2nc3c(OC4(C)CC4)ncnc3n2Cc2cc(C)ccn2)c(Cl)c1 [Example T131, 2-((3-chloro-4-(6-(1-methylcyclopropoxy)-9-((4-methylpyridin-2-yl)methyl)-9H-purin-8-yl)phenyl)amino)-N-methylacetamide] | 794 |
| Cc1ccnc(Cn2c(-c3ccc(OCCNC(N)=O)cc3Cl)nc3c(OC4(C)CC4)ncnc32)c1 [Example T133, 1-(2-(3-chloro-4-(6-(1-methylcyclopropoxy)-9-((4-methylpyridin-2-yl)methyl)-9H-purin-8-yl)phenoxy)ethyl)urea] | 251 |
| Cc1cnc(Cn2c(-c3ccc(OCCN4CC(O)C4)cc3Cl)nc3c(OC4(C)CC4)ncnc32)s1 [Example T141, 1-(2-(3-chloro-4-(6-(1-methylcyclopropoxy)-9-((5-methylthiazol-2-yl)methyl)-9H-purin-8-yl)phenoxy)ethyl)azetidin-3-ol] | 501 |
| Cc1ccnc(Cn2c(-c3ccc(CCNS(C)(=O)=O)cc3Cl)nc3c(OC4(C)CC4)ncnc32)c1 [Example T143, N-(3-chloro-4-(6-(1-methylcyclopropoxy)-9-((4-methylpyridin-2-yl)methyl)-9H-purin-8-yl)phenethyl)methanesulfonamide] | 398 |
| Cc1ccnc(Cn2c(-c3ccc(OCCNS(C)(=O)=O)cc3Cl)nc3c(OC4(C)CC4)ncnc32)c1 [Example T144, N-(2-(3-chloro-4-(6-(1-methylcyclopropoxy)-9-((4-methylpyridin-2-yl)methyl)-9H-purin-8-yl)phenoxy)ethyl)methanesulfonamide] | 158 |
| C#CCNC(=O)c1ccc(-c2nc3c(OC4(C)CC4)ncnc3n2Cc2cc(C)ccn2)c(Cl)c1 [Example T152, 3-chloro-4-(6-(1-methylcyclopropoxy)-9-((4-methylpyridin-2-yl)methyl)-9H-purin-8-yl)-N-(prop-2-yn-1-yl)benzamide] | 398 |
| Cc1ccnc(Cn2c(-c3ccc(C(=O)N4CC(F)C4)cc3Cl)nc3c(OC4(C)CC4)ncnc32)c1 [Example T153, (3-chloro-4-(6-(1-methylcyclopropoxy)-9-((4-methylpyridin-2-yl)methyl)-9H-purin-8-yl)phenyl)(3-fluoroazetidin-1-yl)methanone] | 501 |
| Cc1ccnc(Cn2c(-c3ccc(OCC(=O)NCC(F)(F)F)cc3Cl)nc3c(OC4(C)CC4)ncnc32)c1 [Example T154, 2-(3-chloro-4-(6-(1-methylcyclopropoxy)-9-((4-methylpyridin-2-yl)methyl)-9H-purin-8-yl)phenoxy)-N-(2,2,2-trifluoroethyl)acetamide] | 200 |
| CC1(Oc2ncnc3c2nc(-c2ccc(CCCC(=O)O)cc2Cl)n3Cc2cccc(Cl)c2)CC1 [Example T155, 4-(3-chloro-4-(9-(3-chlorobenzyl)-6-(1-methylcyclopropoxy)-9H-purin-8-yl)phenyl)butanoic acid] | 631 |
| COC(=O)CCOc1ccc(-c2nc3c(OC4(C)CC4)ncnc3n2Cc2cccc(Cl)c2)c(Cl)c1 [Example T156, methyl 3-(3-chloro-4-(9-(3-chlorobenzyl)-6-(1-methylcyclopropoxy)-9H-purin-8-yl)phenoxy)propanoate] | 200 |
| C[C@H](COc1cccc(-c2nc3c(OC4(C)CC4)ncnc3n2Cc2cccc(Cl)c2)c1Cl)C(=O)O [Example T159, (R)-3-(2-chloro-3-(9-(3-chlorobenzyl)-6-(1-methylcyclopropoxy)-9H-purin-8-yl)phenoxy)-2-methylpropanoic acid] | 126 |

| Compound | IC50 [nM] |
| --- | --- |
| C[C@@H](COc1cccc(-c2nc3c(OC4(C)CC4)ncnc3n2Cc2cccc(Cl)c2)c1Cl)C(=O)O [Example T160, (S)-3-(2-chloro-3-(9-(3-chlorobenzyl)-6-(1-methylcyclopropoxy)-9H-purin-8-yl)phenoxy)-2-methylpropanoic acid] | 200 |
| CC1(Oc2ncnc3c2nc(-c2cccc(OCCOCC(=O)O)c2Cl)n3Cc2cccc(Cl)c2)CC1 [Example T162, 2-(2-(2-chloro-3-(9-(3-chlorobenzyl)-6-(1-methylcyclopropoxy)-9H-purin-8-yl)phenoxy)ethoxy)acetic acid] | 126 |
| CC1(Oc2ncnc3c2nc(-c2cccc(OCCCc4nn[nH]n4)c2Cl)n3Cc2cccc(Cl)c2)CC1 [Example T163, 8-(3-(3-(2H-tetrazol-5-yl)propoxy)-2-chlorophenyl)-9-(3-chlorobenzyl)-6-(1-methylcyclopropoxy)-9H-purine] | 251 |
| CC1(Oc2ncnc3c2nc(-c2ccc(OCCCc4nnn[nH]4)cc2Cl)n3Cc2cccc(Cl)c2)CC1 [Example T164, 8-(4-(3-(1H-tetrazol-5-yl)propoxy)-2-chlorophenyl)-9-(3-chlorobenzyl)-6-(1-methylcyclopropoxy)-9H-purine] | 794 |
| Cc1ccnc(Cn2c(-c3ccc(CC(=O)NCC(F)F)cc3Cl)nc3c(OC4(C)CC4)ncnc32)c1 [Example T165, 2-(3-chloro-4-(6-(1-methylcyclopropoxy)-9-((4-methylpyridin-2-yl)methyl)-9H-purin-8-yl)phenyl)-N-(2,2-difluoroethyl)acetamide] | 100 |
| Cc1ccnc(Cn2c(-c3ccc(OCC(=O)NCC(F)F)cc3Cl)nc3c(OC4(C)CC4)ncnc32)c1 [Example T166, 2-(3-chloro-4-(6-(1-methylcyclopropoxy)-9-((4-methylpyridin-2-yl)methyl)-9H-purin-8-yl)phenoxy)-N-(2,2-difluoroethyl)acetamide] | 316 |
| Cc1cccc(Cn2c(-c3ccc(OCCC(=O)O)cc3Cl)nc3c(OC4(C)CC4)ncnc32)c1 [Example T167, 3-(3-chloro-4-(9-(3-methylbenzyl)-6-(1-methylcyclopropoxy)-9H-purin-8-yl)phenoxy)propanoic acid] | 794 |
| Cc1ccccc1Cn1c(-c2ccc(OCCC(=O)O)cc2Cl)nc2c(OC3(C)CC3)ncnc21 [Example T168, 3-(3-chloro-4-(9-(2-methylbenzyl)-6-(1-methylcyclopropoxy)-9H-purin-8-yl)phenoxy)propanoic acid] | 1260 |
| Cc1ccnc(Cn2c(-c3ccc(C(=O)NC4CC4)cc3Cl)nc3c(OC4(C)CC4)ncnc32)c1 [Example T170, 3-chloro-N-cyclopropyl-4-(6-(1-methylcyclopropoxy)-9-((4-methylpyridin-2-yl)methyl)-9H-purin-8-yl)benzamide] | 631 |
| Cc1ccnc(Cn2c(-c3ccc(C(=O)NC4COC4)cc3Cl)nc3c(OC4(C)CC4)ncnc32)c1 [Example T177, 3-chloro-4-(6-(1-methylcyclopropoxy)-9-((4-methylpyridin-2-yl)methyl)-9H-purin-8-yl)-N-(oxetan-3-yl)benzamide] | 1000 |
| Cc1ccnc(Cn2c(-c3ccc(C(=O)N4CC(O)C4)cc3Cl)nc3c(OC4(C)CC4)ncnc32)c1 [Example T180, (3-chloro-4-(6-(1-methylcyclopropoxy)-9-((4-methylpyridin-2-yl)methyl)-9H-purin-8-yl)phenyl)(3-hydroxyazetidin-1-yl)methanone] | 1000 |
| Cc1ccnc(Cn2c(-c3ccc(N4CCOCC4=O)cc3Cl)nc3c(OC4(C)CC4)ncnc32)c1 [Example T182, 4-(3-chloro-4-(6-(1-methylcyclopropoxy)-9-((4-methylpyridin-2-yl)methyl)-9H-purin-8-yl)phenyl)morpholin-3-one] | 631 |
| Cc1ccnc(Cn2c(-c3ccc(O[C@H]4CNC(=O)C4)cc3Cl)nc3c(OC4(C)CC4)ncnc32)c1 [Example T183, (R)-4-(3-chloro-4-(6-(1-methylcyclopropoxy)-9-((4-methylpyridin-2-yl)methyl)-9H-purin-8-yl)phenoxy)pyrrolidin-2-one] | 398 |
| Cc1ccnc(Cn2c(-c3ccc(O[C@@H]4CNC(=O)C4)cc3Cl)nc3c(OC4(C)CC4)ncnc32)c1 [Example T184, (S)-4-(3-chloro-4-(6-(1-methylcyclopropoxy)-9-((4-methylpyridin-2-yl)methyl)-9H-purin-8-yl)phenoxy)pyrrolidin-2-one] | 251 |
| Cc1ccnc(Cn2c(-c3ccc(OC[C@H]4CNC(=O)O4)cc3Cl)nc3c(OC4(C)CC4)ncnc32)c1 [Example T188, (R)-5-((3-chloro-4-(6-(1-methylcyclopropoxy)-9-((4-methylpyridin-2-yl)methyl)-9H-purin-8-yl)phenoxy)methyl)oxazolidin-2-one] | 501 |
